Assay results published in patent US11053185B2, “Dendritic polyethylene glycol derivative, and preparation method and application thereof” (JENKEM TECHNOLOGY CO., LTD. (TIANJIN), priority 2017, dated 2021).

Experiment: Comparison of solubility of derivatives in water
Format: physicochemical
Settings: shaken vigorously every 5 minutes for 30 seconds until clear
Procedure: Then the solution was shaken vigorously every 5 minutes for 30 seconds. After 30 minutes, the solution was turbid. Another 1.5 mL of water was added and the solution was shaken vigorously every 5 minutes for 30 seconds, and the solution became clear until 9 mL of water was totally added.
24.2 mg of the cholesterol derivative of the mEG7-OH prepared in Example 9 was dispersed in 50 mL of water, and 5 mL of the mixture was taken out and added with 1.5 mL of water. Then the solution was shaken vigorously every 5 minutes for 30 seconds. After 30 minutes, the solution became turbid. Another 5 mL of water was added and the solution was shaken vigorously every 5 minutes for 30 seconds until 25 mL of water was totally added. 5 mL of the solution was taken out from the diluted solution and operated similarly, and the solution became clear until 10 mL of water was added.
(§1) 111.0 mg of the hexadecanol derivative of the ((mEG3)2-N—C3H6)2—N—C3H6—OH prepared in Example 8 was dispersed in 50 μL of water, and shaken vigorously every 5 minutes for 30 seconds. After 30 minutes, the solution became clear. Another 50 μL of water was added and the solution was shaken vigorously every 5 minutes for 30 seconds, and the solution was still clear until 1.025 mL of water was added.
as §1, with “112.9” for “111.0”, “mEG7-OH” for “((mEG3)2-N—C3H6)2—N—C3H6—OH”, “9” for “8”, “was turbid.” for “became clear.”, “became” for “was still”, “250 μL” for “1.025 mL”
After 30 minutes, the solution was clear. Another 50 μL of water was added and the solution was shaken vigorously every 5 minutes for 30 seconds, and the solution was still clear until 1.025 mL of water was added.
After 30 minutes, the solution was turbid. Another 50 μL of water was added and the solution was shaken vigorously every 5 minutes for 30 seconds. After 30 minutes, the solution became clear.

SMILES | Solubility in water | Solubility in water (listed as cholesterol) | Solubility in water (listed as hexadecanol) | Solubility in water (listed as menthol)
CC(C)CCC[C@@H](C)[C@H]1CC[C@H]2[C@@H]3CC=C4C[C@@H](O)CC[C@]4(C)[C@H]3CC[C@]12C [Cholesterol, cholesterol] | Less than 0.2 mg/ mg/100 g H2O | less than 0.2 mg/100 g H2O |  | 
CCCCCCCCCCCCCCCCO [Hexadecanol, hexadecanol] | Less than 1 mg/ mg/100 g H2O |  | less than 1 mg/100 g H2O | 
CC1CCC(C(C)C)C(O)C1 (stereo not drawn) [Menthol, menthol] | Less than 100 mg/ mg/100 g H2O |  |  | less than 100 mg/100 g H2O
